# According to PMC12138688, “Identification of Orthosteric GABAB Receptor Ligands by Virtual Screening and In Vitro Validation” (ACS Omega, 2025):
# Target: GABAB-R
# Experiment: not given
# Conditions: read-out: Ki value; cited from earlier work
row,Molecule,Ki [nM]
1,CGP54626,7.08

# System: human GABAB-R (ChEMBL ID: CHEMBL2111463)
# Experiment: not given
# Conditions: cited from earlier work
row,Molecule,Activity
1,"CCOC(OCC)P(=O)(O)CCCN [CHEMBL40157, NCCCP(=O)(C(OCC)OCC)O]",Antagonist
2,"NCC(CC(=O)O)c1ccc(Cl)s1 (stereo not shown) [CHEMBL87482, NCC(CC(=O)O)c1ccc(Cl)s1]",Agonist
3,"NCC(C[PH](=O)O)c1ccccc1 (stereo not shown) [CHEMBL109752, NCC(C[PH](=O)O)c1ccccc1]",Agonist
4,"NC(CC[PH](=O)O)c1ccc(Cl)cc1 (stereo not shown) [CHEMBL110306, NC(CC[PH](=O)O)c1ccc(Cl)cc1]",Agonist
5,"NCCC(c1ccccc1)[PH](=O)O (stereo not shown) [CHEMBL111127, NCCC(c1ccccc1)[PH](=O)O]",Agonist
6,"NCC(C[PH](=O)O)c1ccc(F)cc1 (stereo not shown) [CHEMBL111378, NCC(C[PH](=O)O)c1ccc(F)cc1]",Agonist
7,"CP(=O)(O)CC(O)CN (stereo not shown) [CHEMBL113348, CP(=O)(CC(CN)O)O]",Agonist
8,"NCC(O)C[PH](=O)O (stereo not shown) [CHEMBL113453, NCC(O)C[PH](=O)O]",Agonist
9,"NCCC(c1ccc(Cl)cc1)[PH](=O)O (stereo not shown) [CHEMBL114020, NCCC(c1ccc(Cl)cc1)[PH](=O)O]",Agonist
10,"NCC(C[PH](=O)O)c1ccc(Cl)cc1 (stereo not shown) [CHEMBL430501, NCC(C[PH](=O)O)c1ccc(Cl)cc1]",Agonist
11,"CC(NCC(O)CP(=O)(O)Cc1ccccc1)c1ccc(Cl)c(Cl)c1 (stereo not shown) [CHEMBL455185, OC(CP(=O)(Cc1ccccc1)O)CNC(c1ccc(c(c1)Cl)Cl)C]",Antagonist
12,"NCC(O)(CS(=O)(=O)O)c1ccc(Cl)cc1 (stereo not shown) [CHEMBL1256573, NCC(c1ccc(cc1)Cl)(CS(=O)(=O)O)O]",Antagonist
13,"CC(C)(CO)Cc1cc(C(C)(C)C)c(O)c(C(C)(C)C)c1 [CHEMBL1256697, CC(C)(CO)Cc1cc(C(C)(C)C)c(O)c(C(C)(C)C)c1]",PAM

# System: not listed separately
# Experiment: Solubility of stock in 100% DMSO
# Type: physicochemical
# Conditions: stock reduced to 5 mM
# Experimental: The 34 compounds for in vitro testing were purchased from MolPort (https://www.molport.com/). The test compounds were dissolved in 100% DMSO at a stock concentration of 10 mM and stored at −20 °C. […] Stock compounds were subsequently serially diluted in 100% DMSO and finally in a D-glucose solution (20 mM NaOH, 5 mM D-glucose) to obtain final concentrations for testing.
row,Molecule,solubility of 10 mM stock
1,"CN(Cc1ccc(Cl)c(Cl)c1)Cc1nc2ccsc2c(=O)[nH]1 [Compound 5, CN(Cc1ccc(Cl)c(Cl)c1)Cc1nc2ccsc2c(=O)[nH]1]",solubility problems
2,"CSCCC(NC(=O)N1CC(O)=Nc2ccccc21)C(=O)NCc1ccc(Cl)cc1Cl (stereo not shown) [Compound 25, CSCCC(NC(=O)N1CC(O)=Nc2ccccc12)C(=O)NCc1ccc(Cl)cc1Cl]",solubility problems
